Experimental data published in patent US20200140556A1, “Methods and Compositions for Dectin-2 Stimulation and Cancer Immunotherapy” (The Board of Trustees of the Leland Stanford Junior …, priority 2017, published 2020).

What was measured:
TAMs = experiment: Stimulation of TAMs by Man2-T785 conjugate in solution; type: cell-based; settings: stimuli in solution, low / equivalent concentrations
Text: FIG. 21. Data showing synergism when a Dectin-2 agonist (in this case 65% Man2 100-mer) is conjugated to an immunostimulatory agent (in this case TLR7/8 agonist T785), yielding a glycopeptide conjugate (Man2-T785) that strongly stimulates cells in soluble form.
Synergistic immunostimulatory effects were also observed for the conjugate in vitro. […] Also surprising, the attachment of the TLR7/8 agonist changed the behavior of the Man2 glycopeptides in vitro. Whereas Man2 glycopeptides typically require immobilization (e.g., on a plate or cell) to strongly activate TAMs, the results shown were obtained with the stimuli in solution. […] The same is true of the Man2-antibody conjugates described elsewhere in this disclosure. FIG. 22A presents a schematic of the synthesis used to generate the Man2-T785 conjugate used in FIGS. 20 and 21. Synthetic schemes similar to that depicted in FIG. 22A could also be used to prepare conjugates using R848 (FIG. 22C) and other TLR7/8 ligands.

PDAC cells = experiment: High-mannose glycan display by kifunensine-treated PDAC cells (concavalin A staining, flow cytometry); type: cell-based; settings: tumor cells treated 3 days
Description: (§1) FIG. 5A-5D. Mannosidase inhibition with kifunensine induces high-mannose glycan display and increases tumor cell immunogenicity. (FIG. 5A-5C) PDAC cells were treated with kifunensine for 3 days prior to flow cytometric analysis (FIG. 5A) or coculture with TAM (FIG. 5B, FIG. 5C). (FIG. 5A) PDAC cells stained with the mannose-binding lectin, concavalin A. (FIG. 5B, FIG. 5C) Pretreated PDAC cells were labeled with CSFE and cocultured overnight with TAM to assess cytokine production (FIG. 5B) and tumor cell uptake (FIG. 5C) by Dectin-2-expressing TAM. In some experiments, TAM were treated with Dectin-2-blocking antibodies prior to coculture with PDAC cells (FIG. 5C). *, p<0.05 by Student's t-test. (FIG. 5D) Subcutaneous PDAC tumors from kifunensine-treated mice (i.p., q2d for 7 days) were analyzed by flow cytometry. CD8 T cells (CD8^+CD90^+) among total tumor-infiltrating immune cells are gated.

[1] = test system: tumor-associated myeloid cells (TAM cells); experiment: Coculture of kifunensine-pretreated PDAC cells with TAM (cytokine production, tumor cell uptake); type: cell-based; settings: overnight coculture; Dectin-2-dependent
Description: as §1

subcutaneous PDAC tumors = experiment: Subcutaneous PDAC tumors from kifunensine-treated mice (flow cytometry); type: in vivo; settings: i.p., q2d for 7 days
Description: as §1

[2] = test system: Dectin-2 expression by murine monocytes; experiment: Dectin-2 expression by murine monocytes cultured with or without GM-CSF (flow cytometry); type: cell-based
Description: (§2) FIG. 4A-4D. GM-CSF induces Dectin-2 expression and sensitizes tumors to Dectin-2 stimuli. (FIG. 4A-4C) Murine (FIG. 4A, FIG. 4B) and human (FIG. 4C) monocytes were cultured for 24 hr in media supplemented or not with GM-CSF (50 ng/mL) prior to flow cytometric analysis of Dectin-2 expression (FIG. 4A, FIG. 4C) or stimulation with furfurman and analysis of TNFα production (FIG. 4B). […] (FIG. 4D) Mice bearing s.c. CT26 tumors were treated with mannan (i.v.) and/or GM-CSF (i.t.) starting on day 6 post-tumor implantation.
(§3) FIG. 27A-27G. […] (FIG. 27A, FIG. 27B) Dectin-2 expression by mouse (FIG. 27A) or human (FIG. 27B) monocytes cultured for 18 hr with media supplemented or not with GM-CSF. (C-E) TNFα production by mouse monocytes pretreated with 3T3 fibroblast-conditioned medium+/−GM-CSF (FIG. 27C) or LMP tumor-conditioned medium+/−GM-CSF-neutralizing antibodies (FIG. 27D) or by human monocytes pretreated as indicated (FIG. 27E). (FIG. 27F) LMP-bearing mice treated with mannan (12.5 mg/kg i.v. q2d×2 wk) and the indicated anibodies (10 mg/kg i.p. q2d). (FIG. 27G) Heatmap depicting correlations between expression of Dectin-2 and the indicated genes in human cancer tissues. Gene expression data were obtained from TCGA and analyzed to obtain Spearman's correlation coefficients. **, p<0.01; ****, p<0.0001 by Student's t-test (B) or two-way ANOVA with post hoc Tukey's (F) test. […]

[3] = test system: Dectin-2 expression by human monocytes; experiment: Dectin-2 expression by human monocytes cultured with or without GM-CSF (flow cytometry); type: cell-based
Description: as §2, §3

s.c. CT26 tumors = s.c. CT26 tumors treated with mannan (i.v.) and/or GM-CSF (i.t.); type: in vivo, mice; settings: from day 6
Description: as §2
(FIG. 4A-4C) Murine (FIG. 4A, FIG. 4B) and human (FIG. 4C) monocytes were cultured for 24 hr in media supplemented or not with GM-CSF (50 ng/mL) prior to flow cytometric analysis of Dectin-2 expression (FIG. 4A, FIG. 4C) or stimulation with furfurman and analysis of TNFα production. […] (FIG. 4D) Mice bearing s.c. CT26 tumors were treated with mannan (i.v.) and/or GM-CSF (i.t.) starting on day 6 post-tumor implantation.

monocytes = experiment: TNFα production by monocytes pretreated with conditioned medium +/- GM-CSF; type: cell-based, mouse
Description: FIG. 27A-27G. […] (FIG. 27A, FIG. 27B) Dectin-2 expression by mouse (FIG. 27A) or human (FIG. 27B) monocytes cultured for 18 hr with media supplemented or not with GM-CSF. (C-E) TNFα production by mouse monocytes pretreated with 3T3 fibroblast-conditioned medium+/−GM-CSF (FIG. 27C) or LMP tumor-conditioned medium+/−GM-CSF-neutralizing antibodies (FIG. 27D) or by human monocytes pretreated as indicated (FIG. 27E). (FIG. 27F) LMP-bearing mice treated with mannan (12.5 mg/kg i.v. q2d×2 wk) and the indicated anibodies (10 mg/kg i.p. q2d). (FIG. 27G) Heatmap depicting correlations between expression of Dectin-2 and the indicated genes in human cancer tissues. Gene expression data were obtained from TCGA and analyzed to obtain Spearman's correlation coefficients. **, p<0.01; ****, p<0.0001 by Student's t-test (B) or two-way ANOVA with post hoc Tukey's (F) test.

CCCCc1nc2c(N)nc3ccccc3c2n1CCCCN [T785, 1-(4-aminobutyl)-2-butyl-1H-imidazo[4,5-c]quinolin-4-amine]
TAM stimulation (TAMs): did not

O=C1N[C@@H]2[C@@H](O)[C@@H](O)[C@H](O)[C@@H](CO)N2C1=O [kifunensine]
high-mannose glycans on the cell surface (PDAC cells): sharp increase in high-mannose glycans on the cell surface | TAM activation by treated tumor cells (cytokine production, tumor cell uptake) [1]: activated tumor-associated myeloid cells (TAM cells) | T cell infiltration into tumors (subcutaneous PDAC tumors): led to T cell infiltration into tumors | high-mannose glycan display by tumor cells in vivo (subcutaneous PDAC tumors): increased high-mannose glycan display by tumor cells

GM-CSF: granulocyte-macrophage colony-stimulating factor
Dectin-2 expression ([2]; mouse monocytes, 18 hr): drives Dectin-2 expression | Dectin-2 expression ([2]; murine monocytes, GM-CSF 50 ng/mL, 24 hr): induced Dectin-2 expression | Dectin-2 expression ([3]; 18 hr): drives Dectin-2 expression | Dectin-2 expression ([3]; GM-CSF 50 ng/mL, 24 hr): induced Dectin-2 expression | tumor sensitivity to Dectin-2 stimuli (tumor volume) (s.c. CT26 tumors): sensitized tumors to Dectin-2 stimuli | sensitivity to Dectin-2 stimuli (TNFα production) (monocytes): sensitizes TAMs to Dectin-2 stimuli
